Test results as given in article PMC11497264 (Chembiochem, 2024).
Where two headings read alike, the source gives them in different places. Bridge positions count the residues as written; N and C are the ends. Peptide text beside a SMILES is read from it.

Legend:
human GRP78 = target: T1, human GRP78 (Homo sapiens, UniProt P11021); test: biochemical; format: binding; settings: for kon: read-out: Ka1 (association rate constant 1)
T1 construct: The full length human GRP78 protein recombinantly produced in Escherichia coli; 6xHis (inferred from capture on nickel-NTA chip); purchased Abcam (Cambridge, UK); host or cells: Escherichia coli

GRP78:S1 interaction = target: T2, GRP78:S1 interaction (Homo sapiens, UniProt P11021); test: biochemical; format: binding, human GRP78 / SARS-CoV-2 S1
T2 construct: The full length human GRP78 protein recombinantly produced in Escherichia coli; purchased Abcam (GRP78); Peak Proteins Ltd (S1); host or cells: Escherichia coli (GRP78); HEK293 (S1)

[1] = read-out: Kd1 (dissociation rate constant 1)
[2] = read-out: Kd2 (dissociation rate constant 2)

T1 sequence (P11021 19-654): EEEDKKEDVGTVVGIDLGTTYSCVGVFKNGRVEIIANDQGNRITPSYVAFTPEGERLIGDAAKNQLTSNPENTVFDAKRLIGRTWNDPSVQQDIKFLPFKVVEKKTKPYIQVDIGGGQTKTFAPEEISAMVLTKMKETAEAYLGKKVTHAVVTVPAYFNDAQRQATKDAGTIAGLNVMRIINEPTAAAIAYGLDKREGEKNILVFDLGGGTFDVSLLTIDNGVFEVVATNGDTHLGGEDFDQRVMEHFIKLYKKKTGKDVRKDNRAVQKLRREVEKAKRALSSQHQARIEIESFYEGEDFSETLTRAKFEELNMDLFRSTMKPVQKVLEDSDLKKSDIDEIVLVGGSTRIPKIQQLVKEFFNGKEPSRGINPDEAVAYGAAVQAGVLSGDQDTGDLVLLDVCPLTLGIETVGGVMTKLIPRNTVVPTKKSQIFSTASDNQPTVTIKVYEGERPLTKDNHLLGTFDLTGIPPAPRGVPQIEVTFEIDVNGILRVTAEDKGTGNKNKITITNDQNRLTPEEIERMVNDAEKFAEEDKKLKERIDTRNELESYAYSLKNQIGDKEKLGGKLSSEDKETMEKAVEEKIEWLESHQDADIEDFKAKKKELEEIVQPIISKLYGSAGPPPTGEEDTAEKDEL
T2 sequence (P11021 19-654): as above

Structure (SMILES)	Kd (human GRP78; affinity of binding to GRP78)	kon (human GRP78)	koff (human GRP78; [1])	koff (human GRP78; [2])	IC50 (GRP78:S1 interaction)	Kd (human GRP78; KD (equilibrium dissociation constant))
CC(C)[C@@H]1NC(=O)CNC(=O)[C@H](CC(N)=O)NC(=O)[C@@H](N)CSSC[C@@H](C(N)=O)NC(=O)[C@H](CC(N)=O)NC(=O)[C@H](Cc2ccccc2)NC(=O)CNC(=O)[C@H](CCC(=O)O)NC1=O [LCP W] (H-CNGVEGFNC-NH2; disulfide 1-9)	0.2 mM	1670 M⁻¹ s⁻¹	0.43 s⁻¹	0.03 s⁻¹	< 0.003 mM	
CC(C)[C@@H]1NC(=O)CNC(=O)[C@H](CC(N)=O)NC(=O)[C@@H](N)CSSC[C@@H](C(N)=O)NC(=O)[C@H](CC(N)=O)NC(=O)[C@H](Cc2ccccc2)NC(=O)CNC(=O)[C@H](C)NC1=O [LCP O] (H-CNGVAGFNC-NH2; disulfide 1-9)	2 mM	140 M⁻¹ s⁻¹	0.643 s⁻¹	0.00182 s⁻¹	< 0.003 mM	2.12 mM
